Bounds are passed on as bounds.

Holding throughout (format): functional
Assay [1] deals with T1, Cdk-related protein kinase 6 (Plasmodium falciparum, UniProt O77239).
T1 sequence (O77239 whole entry): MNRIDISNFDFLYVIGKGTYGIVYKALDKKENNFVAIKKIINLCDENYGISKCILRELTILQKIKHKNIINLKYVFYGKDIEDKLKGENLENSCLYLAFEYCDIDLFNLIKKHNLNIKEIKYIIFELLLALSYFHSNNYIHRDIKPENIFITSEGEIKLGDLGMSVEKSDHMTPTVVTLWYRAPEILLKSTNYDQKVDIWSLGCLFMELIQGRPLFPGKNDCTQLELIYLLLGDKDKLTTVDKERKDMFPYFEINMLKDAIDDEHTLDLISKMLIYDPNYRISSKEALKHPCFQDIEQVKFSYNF
Description: Final concentrations were 1.5 uM ATP, 5 mM MnCl2, and 15 ug/ml PK6 in a buffer of 100 mM Tris-HCl (pH 7.5). 50 ug/mL MBP was provided as the substrate; 10 uM staurosporine was used as a control inhibitor. Incubation time was 3 hours and 40 minutes.The catalytic activity of each kinase was considered proportional to ATP consumed, as determined from measurements of residual [ATP] with the luciferase-based reagent Kinase-Glo (Promega) following incubation. Luminescence (proportional to residual [ATP]) was measured on the plate readers FLx800 (BioTek Instruments, Winooski, VT, USA) and MicroBeta2. In general terms: In Kinase-Glo more light means more ATP remaining.

For assay [2], the target named is T2, Putative uncharacterized protein pk7 (Plasmodium falciparum, UniProt O96214).
T2 sequence (O96214 whole entry): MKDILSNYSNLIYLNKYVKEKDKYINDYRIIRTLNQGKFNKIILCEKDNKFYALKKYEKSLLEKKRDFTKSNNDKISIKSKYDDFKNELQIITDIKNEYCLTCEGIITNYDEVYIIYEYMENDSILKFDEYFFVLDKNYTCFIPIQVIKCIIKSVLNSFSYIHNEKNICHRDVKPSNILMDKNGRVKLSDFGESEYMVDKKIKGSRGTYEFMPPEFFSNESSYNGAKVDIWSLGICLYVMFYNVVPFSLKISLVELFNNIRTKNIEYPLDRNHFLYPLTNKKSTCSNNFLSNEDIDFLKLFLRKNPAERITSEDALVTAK
Briefly: Final concentrations were 1 uM ATP, 2 mM DTT, 20 mM MgCl2, 2 mM MnCl2, 0.01% BSA, and 6 ug/ml PK7, in a buffer of 20 mM Tris-HCl (pH 7.5). The enzyme itself was the only substrate present (since autophosphorylation occurs); 100 uM 1NA-PP1 was used as a control inhibitor. Incubation time was 3 hours.

Assay [3] concerns the target T3, Mitogen-activated protein kinase (Plasmodium falciparum, UniProt Q25917).
T3 sequence (Q25917 whole entry): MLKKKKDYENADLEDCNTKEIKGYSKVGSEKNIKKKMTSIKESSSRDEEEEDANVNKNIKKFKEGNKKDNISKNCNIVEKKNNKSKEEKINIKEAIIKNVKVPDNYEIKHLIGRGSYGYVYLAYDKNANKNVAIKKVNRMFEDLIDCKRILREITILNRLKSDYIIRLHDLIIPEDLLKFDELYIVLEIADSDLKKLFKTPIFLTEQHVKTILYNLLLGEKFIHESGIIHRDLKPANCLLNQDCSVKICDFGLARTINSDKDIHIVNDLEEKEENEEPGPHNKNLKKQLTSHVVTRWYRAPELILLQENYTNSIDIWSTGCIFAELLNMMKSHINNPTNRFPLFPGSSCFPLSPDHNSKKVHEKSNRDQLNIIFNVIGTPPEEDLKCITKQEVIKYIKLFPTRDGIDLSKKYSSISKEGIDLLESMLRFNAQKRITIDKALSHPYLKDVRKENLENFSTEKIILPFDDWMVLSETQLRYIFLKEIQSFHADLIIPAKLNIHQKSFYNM
Briefly: Final concentrations were 1 uM ATP, 0.5 mM DTT, 1 mM MgCl2, 0.5 mg/mL BSA, and 10 ug/ml MAP2 in a buffer of 50 mM HEPES (pH 7.0). 0.5 mg/mL histone III-S served as the substrate (13); 100 uM AMP-PNP, an ATP analog, was used as a control inhibitor. Incubation time was 4 hours.

Assay [4] concerns the target Lysine--tRNA ligase (Plasmodium falciparum (isolate 3D7), UniProt Q8IDJ8). Briefly: MMV: KRS recombinant Plasmodium falciparum Lysyl-tRNA-synthetase, assay with yeast tRNA, ATP, and lysine and 3 uM MMV malaria box compound, assay read out with kinase glo as % inhibition.
In assay [5] the target is T4, Calcium-dependent protein kinase 4 (Plasmodium falciparum (isolate 3D7), UniProt Q8IBS5).
T4 sequence (Q8IBS5 whole entry): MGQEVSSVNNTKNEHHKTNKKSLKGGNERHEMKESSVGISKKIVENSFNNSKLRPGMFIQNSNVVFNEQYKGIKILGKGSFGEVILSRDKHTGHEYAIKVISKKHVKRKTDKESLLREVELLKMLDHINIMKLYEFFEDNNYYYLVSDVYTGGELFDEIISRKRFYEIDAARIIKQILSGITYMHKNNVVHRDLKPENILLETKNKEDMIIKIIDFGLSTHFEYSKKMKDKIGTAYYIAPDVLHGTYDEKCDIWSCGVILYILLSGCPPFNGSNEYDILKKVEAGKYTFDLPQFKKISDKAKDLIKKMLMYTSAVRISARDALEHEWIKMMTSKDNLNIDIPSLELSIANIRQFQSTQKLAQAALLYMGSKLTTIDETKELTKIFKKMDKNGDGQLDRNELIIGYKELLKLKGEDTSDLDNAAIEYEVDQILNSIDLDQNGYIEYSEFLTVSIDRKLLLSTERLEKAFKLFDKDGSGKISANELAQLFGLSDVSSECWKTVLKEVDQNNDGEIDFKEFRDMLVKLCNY
Description: MMV: CDPK4 Protein kinase inhibition assay using recombinant PfCDPK4, syntide2 peptide substrate, ATP and KinaseGlo to measure % inhibition at 1 uM MMV box compound.

Assay [6] has as its target Calcium-dependent protein kinase 1 (Plasmodium falciparum, UniProt P62344). Briefly: MMV: CDPK1 Protein kinase inhibition assay using recombinant PfCDPK1, syntide 2 peptide substrate, ATP and KinaseGlo to measure % inhibition at 1 uM MMV box compound.
Assay [7] has as its target T5, Proline--tRNA ligase (Plasmodium falciparum (isolate 3D7), UniProt Q8I5R7).
T5 sequence (Q8I5R7 whole entry): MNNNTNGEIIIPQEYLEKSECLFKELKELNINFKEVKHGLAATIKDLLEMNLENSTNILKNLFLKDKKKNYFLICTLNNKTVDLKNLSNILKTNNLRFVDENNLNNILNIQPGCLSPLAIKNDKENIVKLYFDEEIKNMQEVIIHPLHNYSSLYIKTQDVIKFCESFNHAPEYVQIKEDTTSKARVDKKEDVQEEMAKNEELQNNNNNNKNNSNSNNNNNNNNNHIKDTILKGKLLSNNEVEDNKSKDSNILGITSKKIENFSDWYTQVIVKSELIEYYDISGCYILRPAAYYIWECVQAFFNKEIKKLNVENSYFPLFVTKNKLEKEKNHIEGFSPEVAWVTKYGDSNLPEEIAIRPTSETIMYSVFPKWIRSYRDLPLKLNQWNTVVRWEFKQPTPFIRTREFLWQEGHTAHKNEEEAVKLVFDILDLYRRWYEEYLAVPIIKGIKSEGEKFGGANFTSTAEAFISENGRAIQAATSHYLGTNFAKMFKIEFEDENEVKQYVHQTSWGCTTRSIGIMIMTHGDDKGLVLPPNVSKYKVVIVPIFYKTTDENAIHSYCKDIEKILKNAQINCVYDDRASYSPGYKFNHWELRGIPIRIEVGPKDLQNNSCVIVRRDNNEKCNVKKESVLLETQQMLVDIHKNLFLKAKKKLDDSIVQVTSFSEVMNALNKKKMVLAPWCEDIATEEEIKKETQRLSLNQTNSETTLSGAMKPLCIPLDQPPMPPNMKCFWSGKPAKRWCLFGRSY
Briefly: MMV: ProRS recombinant Plasmodium falciparum Prolyl-tRNA-synthetase, assay with yeast tRNA, ATP, and proline and 3 uM MMV malaria box compound, assay read out with kinase glo as % inhibition.

Calcium-dependent protein kinase 1, sequence (P62344 whole entry): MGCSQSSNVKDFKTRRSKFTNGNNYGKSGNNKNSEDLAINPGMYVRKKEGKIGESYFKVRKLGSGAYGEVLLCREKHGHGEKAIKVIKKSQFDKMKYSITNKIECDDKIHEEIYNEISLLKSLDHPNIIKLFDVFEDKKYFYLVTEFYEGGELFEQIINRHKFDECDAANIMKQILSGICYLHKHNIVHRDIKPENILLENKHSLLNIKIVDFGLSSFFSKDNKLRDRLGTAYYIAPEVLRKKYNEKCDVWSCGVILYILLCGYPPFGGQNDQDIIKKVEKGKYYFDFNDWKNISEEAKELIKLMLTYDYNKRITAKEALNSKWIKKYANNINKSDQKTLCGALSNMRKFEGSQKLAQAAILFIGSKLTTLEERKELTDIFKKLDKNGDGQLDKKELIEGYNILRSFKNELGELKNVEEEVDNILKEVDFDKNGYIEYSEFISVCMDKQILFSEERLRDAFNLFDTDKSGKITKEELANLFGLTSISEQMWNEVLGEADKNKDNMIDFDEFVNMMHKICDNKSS
Lysine--tRNA ligase, sequence (Q8IDJ8 whole entry): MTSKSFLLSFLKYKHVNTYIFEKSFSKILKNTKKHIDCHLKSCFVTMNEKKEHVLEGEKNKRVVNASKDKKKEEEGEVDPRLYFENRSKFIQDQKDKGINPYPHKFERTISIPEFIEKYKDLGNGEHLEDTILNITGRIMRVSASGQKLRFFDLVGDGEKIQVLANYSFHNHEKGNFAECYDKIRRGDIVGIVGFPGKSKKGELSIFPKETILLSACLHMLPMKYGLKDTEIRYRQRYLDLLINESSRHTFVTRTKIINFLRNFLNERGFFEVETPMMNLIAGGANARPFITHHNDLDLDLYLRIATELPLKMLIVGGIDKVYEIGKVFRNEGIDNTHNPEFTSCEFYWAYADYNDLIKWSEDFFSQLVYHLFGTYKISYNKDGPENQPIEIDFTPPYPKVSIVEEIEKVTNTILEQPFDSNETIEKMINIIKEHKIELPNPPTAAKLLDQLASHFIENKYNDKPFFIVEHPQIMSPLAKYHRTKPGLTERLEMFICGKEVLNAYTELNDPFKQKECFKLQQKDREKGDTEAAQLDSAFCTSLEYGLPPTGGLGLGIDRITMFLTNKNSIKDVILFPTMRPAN

The term IC50 denotes the concentration needed to halve the response being measured. Take `Cc1ccc(-c2cc(C(=O)Nc3ccc(S(=O)(=O)N4CCCCC4)cc3)[nH]n2)c(O)c1`: the IC50 in assay [1] was above 1000 nM; in assay [2], above 1000 nM; in assay [3], above 1000 nM; in assay [4] it was above 2500 nM; in assay [5], above 1000 nM; in assay [6] it was above 1000 nM. For the same compound, in assay [7], the IC50 is above 2500 nM.

With `COc1ccc(N2CCN(C(CNC(=O)C3CCCCC3)c3ccc4c(c3)OCO4)CC2)cc1` (stereo not drawn), the IC50 was above 1000 nM in assay [1]; above 1000 nM in assay [2]; above 1000 nM in assay [3]; above 2500 nM in assay [4]; above 1000 nM in assay [5]; above 1000 nM in assay [6]. In assay [7], the IC50 is above 2500 nM.

For the compound `Cc1[nH]c(-c2ccc(F)cc2)cc1C(=O)NC1CCN(Cc2ccccc2)CC1`, the IC50 in assay [1] is above 1000 nM; in assay [2], above 1000 nM; in assay [3], above 1000 nM; in assay [4], above 2500 nM; in assay [5], above 1000 nM; in assay [6] it was above 1000 nM. The IC50 in assay [7] is above 2500 nM.

`O=C(NC1CCCC1)c1ccc(N2CCC(NCc3cccc(C(F)(F)F)c3)CC2)cc1`: the IC50 is above 1000 nM in assay [1]; above 1000 nM in assay [2]; above 1000 nM in assay [3]; above 2500 nM in assay [4]; above 1000 nM in assay [5]; above 1000 nM in assay [6]. Also, in assay [7], the IC50 was above 2500 nM.

Take `CCOc1cc(Br)c(C(C)NC(=O)c2cccc(OC)c2)cc1OCC` (stereo not drawn): the IC50 was above 1000 nM in assay [1]; above 1000 nM in assay [2]; above 1000 nM in assay [3]; above 2500 nM in assay [4]; above 1000 nM in assay [5]; above 1000 nM in assay [6]. In addition, the IC50 in assay [7] was above 2500 nM.

With `CCN(CC)CCn1c(=N)n(CC(O)c2ccc(Cl)c(Cl)c2)c2ccccc21` (stereo not drawn), the IC50 in assay [1] was above 1000 nM; in assay [2], above 1000 nM; in assay [3], above 1000 nM; in assay [4], above 2500 nM; in assay [5] it was above 1000 nM; in assay [6], above 1000 nM. Also, the IC50 in assay [7] is above 2500 nM.

`Cc1ccc(CSCc2ccc(C(=O)NC3CC3)o2)cc1`: the IC50 is above 1000 nM in assay [1]; above 1000 nM in assay [2]; above 1000 nM in assay [3]; above 2500 nM in assay [4]; above 1000 nM in assay [5]; above 1000 nM in assay [6]. Further, the IC50 in assay [7] is above 2500 nM.

Consider `CC(=O)NCCc1nc2ccccc2n1Cc1ccc(C(C)C)cc1`, for which the half-inhibitory concentration (IC50) in assay [1] was above 1000 nM; in assay [2] it was above 1000 nM; in assay [3], above 1000 nM; in assay [4], above 2500 nM; in assay [5], above 1000 nM; in assay [6] it was above 1000 nM. The IC50 in assay [7] is above 2500 nM.

`CC(C)(C)C(=O)Nc1ccc(C(=O)Nc2cccc(-c3nc4ccccc4[nH]3)c2)cc1`: the IC50 in assay [1] is above 1000 nM; in assay [2] it was above 1000 nM; in assay [3], above 1000 nM; in assay [4], above 2500 nM; in assay [5] it was above 1000 nM; in assay [6], above 1000 nM. Also, in assay [7], the IC50 was above 2500 nM.

With `CC(C)(C)c1ccc(C(=O)Nc2nc3ccccc3s2)cc1`, the IC50 was above 1000 nM in assay [1]; above 1000 nM in assay [2]; above 1000 nM in assay [3]; above 2500 nM in assay [4]; above 1000 nM in assay [5]; above 1000 nM in assay [6]. In addition, in assay [7], the IC50 is above 2500 nM.

For the compound `COc1ccc(C2N(C)c3ccccc3N2C)cc1`, the IC50 in assay [1] is above 1000 nM; in assay [2] it was above 1000 nM; in assay [3], above 1000 nM; in assay [4], above 2500 nM; in assay [5], above 1000 nM; in assay [6] it was above 1000 nM. Further, in assay [7], the IC50 is above 2500 nM.

`CC(C)OCc1cc(CN2CCN(c3cccc(Cl)c3)CC2)c(O)c2ncccc12`: the IC50 in assay [1] was above 1000 nM; in assay [2] it was above 1000 nM; in assay [3] it was above 1000 nM; in assay [4], above 2500 nM; in assay [5] it was above 1000 nM; in assay [6], above 1000 nM. Further, in assay [7], the IC50 is above 2500 nM.

On to `CCCN(CCC)CCCNC(=O)c1cc2c(-c3ccc(OC)c(OC)c3)nn(C)c2s1`, for which the IC50 in assay [1] was above 1000 nM; in assay [2], above 1000 nM; in assay [3], above 1000 nM; in assay [4] it was above 2500 nM; in assay [5] it was above 1000 nM; in assay [6], above 1000 nM. Moreover, the IC50 in assay [7] was above 2500 nM.

Take `O=C(NCC1Cc2cccc(-c3ccncc3)c2O1)c1csc2c1CCCC2` (stereo not drawn): the IC50 in assay [1] is above 1000 nM; in assay [2], above 1000 nM; in assay [3], above 1000 nM; in assay [4] it was above 2500 nM; in assay [5], above 1000 nM; in assay [6], above 1000 nM. Besides, the IC50 in assay [7] is above 2500 nM.

The values above are taken from ChEMBL document CHEMBL3301562, “MMV Box screening against Plasmodium falciparum protein kinases and aminoacyl tRNA synthetases”.
